Measurements from patent EP4667483A1, “HUMAN TRANSFERRIN RECEPTOR-BINDING PEPTIDE” (JCR Pharmaceuticals Co., Ltd., priority 2023, dated 2024).
Bridge positions count the residues as written; N and C are the ends. Square brackets hold non-standard residues; d marks the D form. Peptide text beside a SMILES is read from it. * marks the point of attachment. Ala(imidazo(1,2-a)pyr3yl) = N[C@@H](Cc1cnc2ccccn12)C(=O)O; Trp(1-CH2COOH) = N[C@@H](Cc1cn(CC(=O)O)c2ccccc12)C(=O)O; NMePhe(4-COOH) = CN[C@@H](Cc1ccc(C(=O)O)cc1)C(=O)O; Nle(6-morpholino) = N[C@@H](CCCCN1CCOCC1)C(=O)O; Phe(3-COOH) = N[C@@H](Cc1cccc(C(=O)O)c1)C(=O)O; NMePhe(3-OMe) = CN[C@@H](Cc1cccc(OC)c1)C(=O)O; Trp(7-aza) = N[C@@H](Cc1c[nH]c2ncccc12)C(=O)O; NMePhe(3-Cl) = CN[C@@H](Cc1cccc(Cl)c1)C(=O)O; 3Pal(6-NH2) = Nc1ccc(C[C@H](N)C(=O)O)cn1; NMeW = CN[C@@H](Cc1c[nH]c2ccccc12)C(=O)O; Lys(N3) = [N-]=[N+]=NCCCC[C@H](N)C(=O)O; NMeY = CN[C@@H](Cc1ccc(O)cc1)C(=O)O; Nva(3-Et) = CCC(CC)[C@H](N)C(=O)O; 4Pal = N[C@@H](Cc1ccncc1)C(=O)O; PEG4 = NCCOCCOCCOCCOCCC(=O)O; Carboxymethyl = O=C(O)C*

Key:
[1] = target: T1, human transferrin receptor (hTfR) (Homo sapiens, UniProt P02786); test: SPR measurement under pH 7.4 conditions (Biacore T200, CM3 chip, hTfR captured by His Tag antibody); format: binding; conditions: read-out: hTfR SPR pH7.4 KD
T1 sequence (P02786 whole entry): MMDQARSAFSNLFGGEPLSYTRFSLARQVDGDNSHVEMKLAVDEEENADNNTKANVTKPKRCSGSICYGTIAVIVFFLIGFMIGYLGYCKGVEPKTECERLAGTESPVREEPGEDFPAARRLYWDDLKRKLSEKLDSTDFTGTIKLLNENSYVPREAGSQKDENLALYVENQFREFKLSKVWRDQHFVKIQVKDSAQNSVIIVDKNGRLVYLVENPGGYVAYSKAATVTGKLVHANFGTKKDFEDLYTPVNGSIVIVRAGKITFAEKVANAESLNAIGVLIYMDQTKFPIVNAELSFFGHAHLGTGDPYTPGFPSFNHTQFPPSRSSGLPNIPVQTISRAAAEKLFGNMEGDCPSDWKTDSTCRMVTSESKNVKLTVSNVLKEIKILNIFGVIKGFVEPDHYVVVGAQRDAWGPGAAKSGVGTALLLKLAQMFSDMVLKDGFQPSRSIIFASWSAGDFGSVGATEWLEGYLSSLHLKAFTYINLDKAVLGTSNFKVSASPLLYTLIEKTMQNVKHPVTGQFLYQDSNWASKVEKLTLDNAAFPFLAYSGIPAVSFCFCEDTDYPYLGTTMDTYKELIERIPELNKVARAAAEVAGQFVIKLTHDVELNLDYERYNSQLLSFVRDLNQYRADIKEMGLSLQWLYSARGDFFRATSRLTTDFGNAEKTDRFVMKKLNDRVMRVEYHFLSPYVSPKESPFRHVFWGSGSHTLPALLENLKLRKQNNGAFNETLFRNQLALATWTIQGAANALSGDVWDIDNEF

[2] = target: T1, human transferrin receptor (hTfR); test: SPR measurement under pH 6.0 conditions (Biacore T200, NTA chip, immobilized hTfR); format: binding; conditions: read-out: hTfR SPR pH6.0 KD
[3] = SPR, pH 7.4, peptide with the linker named in the table
[4] = SPR, pH 6.0, peptide with the linker named in the table

| Compound | Kd ([1]; pH 7.4, single-cycle kinetics) [nM] | Kd ([2]; pH 6.0, single-cycle kinetics) [nM] | Kd [1, 3] [nM] | Kd [2, 4] [nM] |
| --- | --- | --- | --- | --- |
| CC[C@H](C)[C@@H]1NC(=O)[C@H](Cc2ccc(OC)cc2)NC(=O)[C@H](Cc2ccc(N)nc2)NC(=O)[C@H](CC(N)=O)NC(=O)[C@H](Cc2c[nH]c3ccccc23)N(C)C(=O)[C@H](C(C)C)NC(=O)[C@H](Cc2cccc(Cl)c2)N(C)C(=O)[C@H](C(C)C)NC(=O)[C@H](C)NC(=O)CSC[C@@H](C(=O)NCCOCCOCCOCCOCCC(N)=O)NC(=O)[C@H](Cc2ccc(C(=O)O)cc2)N(C)C(=O)[C@H](Cc2ccncc2)NC(=O)[C@H](CCCNC(=N)N)NC(=O)[C@H](CCCCN)NC(=O)[C@H]([C@@H](C)CC)NC1=O [compound 60] ({CH2CO}-AV[NMePhe(3-Cl)]V[NMeW]N[3Pal(6-NH2)]Y(Me)IIKR[4Pal][NMePhe(4-COOH)]C[PEG4]-NH2; thioether N-15) | 0.755 | 4.71 |  |  |
| CC[C@H](C)[C@@H]1NC(=O)[C@H](Cc2ccc(OCC(=O)O)cc2)NC(=O)[C@H](Cc2ccc(O)cc2)NC(=O)[C@H](CC(N)=O)NC(=O)[C@H](Cc2c[nH]c3ncccc23)NC(=O)[C@H](C(C)C)NC(=O)[C@H](Cc2cccc(Cl)c2)N(C)C(=O)[C@H](C(C)C)NC(=O)[C@H](C)NC(=O)CSC[C@@H](C(=O)NCCOCCOCCOCCOCCC(N)=O)NC(=O)[C@H](Cc2ccc(O)cc2)N(C)C(=O)[C@H](Cc2ccncc2)NC(=O)[C@H](CCCNC(=N)N)NC(=O)[C@H](CCC(=O)NCCOCCOCCOCCOCCC(=O)O)NC(=O)[C@H]([C@@H](C)CC)NC1=O [compound 63] | 23.6 | 87.7 |  |  |
| CC[C@H](C)[C@@H]1NC(=O)[C@H](Cc2ccc(OC)cc2)NC(=O)[C@H](Cc2ccc(N)nc2)NC(=O)[C@H](CC(N)=O)NC(=O)[C@H](Cc2c[nH]c3ncccc23)NC(=O)[C@H](C(C)C)NC(=O)[C@H](Cc2cccc(Cl)c2)N(C)C(=O)[C@H](C(C)C)NC(=O)[C@H](C)NC(=O)CSC[C@@H](C(=O)NCC(=O)N[C@@H](CCCCN=[N+]=[N-])C(N)=O)NC(=O)[C@H](Cc2ccc(O)cc2)N(C)C(=O)[C@H](Cc2ccncc2)NC(=O)[C@H](CCCNC(=N)N)NC(=O)[C@H](CCCNC(=N)N)NC(=O)[C@H]([C@@H](C)CC)NC1=O [compound 66] | 2.27 | 16.1 |  |  |
| CC[C@H](C)[C@@H]1NC(=O)[C@H](Cc2ccc(OC)cc2)NC(=O)[C@H](Cc2ccc(N)nc2)NC(=O)[C@H](CC(N)=O)NC(=O)[C@H](Cc2c[nH]c3ncccc23)NC(=O)[C@H](C(C)C)NC(=O)[C@H](Cc2cccc(Cl)c2)N(C)C(=O)[C@H](C(C)C)NC(=O)[C@H](C)NC(=O)CSC[C@@H](C(=O)NCC(=O)N[C@@H](CCCCN=[N+]=[N-])C(N)=O)NC(=O)[C@H](Cc2ccc(O)cc2)N(C)C(=O)[C@H](Cc2ccncc2)NC(=O)[C@H](CCCCN2CCOCC2)NC(=O)[C@H](CCCCN2CCOCC2)NC(=O)[C@H]([C@@H](C)CC)NC1=O [compound 68] ({CH2CO}-AV[NMePhe(3-Cl)]V[Trp(7-aza)]N[3Pal(6-NH2)]Y(Me)II[Nle(6-morpholino)][Nle(6-morpholino)][4Pal][NMeY]CG[Lys(N3)]-NH2; thioether N-15) | 2.06 | 12.4 |  |  |
| CCC(CC)[C@@H]1NC(=O)[C@H](Cc2ccc(OCC(=O)O)cc2)NC(=O)[C@H](Cc2ccc(O)cc2)NC(=O)[C@H](CC(N)=O)NC(=O)[C@H](Cc2cn(CC(=O)O)c3ccccc23)NC(=O)[C@H](C(C)C)NC(=O)[C@H](Cc2cccc(Cl)c2)N(C)C(=O)[C@H](C(C)C)NC(=O)[C@H](C)NC(=O)CSC[C@@H](C(=O)NCCOCCOCCOCCOCCC(N)=O)NC(=O)[C@H](Cc2cccc(OC)c2)N(C)C(=O)[C@H](Cc2cccc(C(=O)O)c2)NC(=O)[C@H](CCCNC(=N)N)NC(=O)[C@H](CCC(N)=O)NC(=O)[C@H]([C@@H](C)CC)NC1=O [compound 95] ({CH2CO}-AV[NMePhe(3-Cl)]V[Trp(1-CH2COOH)]NYY(Carboxymethyl)[Nva(3-Et)]IQR[Phe(3-COOH)][NMePhe(3-OMe)]C[PEG4]-NH2; thioether N-15) |  |  | 10.6 | 67.9 |

Other lines, results leading:

| Kd ([1]; pH 7.4, single-cycle kinetics) [nM] | Kd ([2]; pH 6.0, single-cycle kinetics) [nM] | Kd [1, 3] [nM] | Kd [2, 4] [nM] | Compound |
| --- | --- | --- | --- | --- |
| 0.971 | 5.4 |  |  | CC[C@H](C)[C@@H]1NC(=O)[C@H](Cc2ccc(OC)cc2)NC(=O)[C@H](Cc2ccc(N)nc2)NC(=O)[C@H](CC(N)=O)NC(=O)[C@H](Cc2c[nH]c3ccccc23)NC(=O)[C@H](C(C)C)NC(=O)[C@H](Cc2cccc(Cl)c2)N(C)C(=O)[C@H](C(C)C)NC(=O)[C@H](C)NC(=O)CSC[C@@H](C(=O)NCCOCCOCCOCCOCCC(N)=O)NC(=O)[C@H](Cc2ccc(O)cc2)N(C)C(=O)[C@H](Cc2ccncc2)NC(=O)[C@H](CCCNC(=N)N)NC(=O)[C@H](CCCCN)NC(=O)[C@H]([C@@H](C)CC)NC1=O [compound 57] ({CH2CO}-AV[NMePhe(3-Cl)]VWN[3Pal(6-NH2)]Y(Me)IIKR[4Pal][NMeY]C[PEG4]-NH2; thioether N-15) |
| 1.34 | 5.39 |  |  | CC[C@H](C)[C@@H]1NC(=O)[C@H](Cc2ccc(OC)cc2)NC(=O)[C@H](Cc2ccc(N)nc2)NC(=O)[C@H](CC(N)=O)NC(=O)[C@H](Cc2c[nH]c3ccccc23)N(C)C(=O)[C@H](C(C)C)NC(=O)[C@H](Cc2cccc(Cl)c2)N(C)C(=O)[C@H](C(C)C)NC(=O)[C@H](C)NC(=O)CSC[C@@H](C(=O)NCCOCCOCCOCCOCCC(N)=O)NC(=O)[C@H](Cc2ccc(O)cc2)N(C)C(=O)[C@H](Cc2ccncc2)NC(=O)[C@H](CCCNC(=N)N)NC(=O)[C@H](CCCCN)NC(=O)[C@H]([C@@H](C)CC)NC1=O [compound 58] ({CH2CO}-AV[NMePhe(3-Cl)]V[NMeW]N[3Pal(6-NH2)]Y(Me)IIKR[4Pal][NMeY]C[PEG4]-NH2; thioether N-15) |
| 1.46 | 9.57 |  |  | CC[C@H](C)[C@@H]1NC(=O)[C@H](Cc2ccc(OC)cc2)NC(=O)[C@H](Cc2ccc(N)nc2)NC(=O)[C@H](CC(N)=O)NC(=O)[C@H](Cc2c[nH]c3ccccc23)NC(=O)[C@H](C(C)C)NC(=O)[C@H](Cc2cccc(Cl)c2)N(C)C(=O)[C@H](C(C)C)NC(=O)[C@H](C)NC(=O)CSC[C@@H](C(=O)NCCOCCOCCOCCOCCC(N)=O)NC(=O)[C@H](Cc2ccc(C(=O)O)cc2)N(C)C(=O)[C@H](Cc2ccncc2)NC(=O)[C@H](CCCNC(=N)N)NC(=O)[C@H](CCCCN)NC(=O)[C@H]([C@@H](C)CC)NC1=O [compound 59] ({CH2CO}-AV[NMePhe(3-Cl)]VWN[3Pal(6-NH2)]Y(Me)IIKR[4Pal][NMePhe(4-COOH)]C[PEG4]-NH2; thioether N-15) |
| 28.5 | 92.1 |  |  | CC[C@H](C)[C@@H]1NC(=O)[C@H](Cc2ccc(OCC(=O)O)cc2)NC(=O)[C@H](Cc2ccc(O)cc2)NC(=O)[C@H](CC(N)=O)NC(=O)[C@H](Cc2c[nH]c3ncccc23)NC(=O)[C@H](C(C)C)NC(=O)[C@H](Cc2cccc(Cl)c2)N(C)C(=O)[C@H](C(C)C)NC(=O)[C@H](C)NC(=O)CSC[C@@H](C(=O)NCCOCCOCCOCCOCCC(N)=O)NC(=O)[C@H](Cc2ccc(O)cc2)N(C)C(=O)[C@H](Cc2ccncc2)NC(=O)[C@H](CCCNC(=N)N)NC(=O)[C@H](CCC(=O)NCCOCCOCCOCCOCCOCCOCCOCCOCCC(=O)O)NC(=O)[C@H]([C@@H](C)CC)NC1=O [compound 62] |
| 5.43 | 56.5 |  |  | CC[C@H](C)[C@@H]1NC(=O)[C@H](Cc2ccc(OC)cc2)NC(=O)[C@H](Cc2ccc(N)nc2)NC(=O)[C@H](CC(N)=O)NC(=O)[C@H](Cc2cnc3ccccn23)NC(=O)[C@H](C(C)C)NC(=O)[C@H](Cc2cccc(Cl)c2)N(C)C(=O)[C@H](C(C)C)NC(=O)[C@H](C)NC(=O)CSC[C@@H](C(=O)NCCOCCOCCOCCOCCC(N)=O)NC(=O)[C@H](Cc2ccc(O)cc2)N(C)C(=O)[C@H](Cc2ccncc2)NC(=O)[C@H](CCCNC(=N)N)NC(=O)[C@H](CCCNC(=N)N)NC(=O)[C@H]([C@@H](C)CC)NC1=O [compound 65] ({CH2CO}-AV[NMePhe(3-Cl)]V[Ala(imidazo(1,2-a)pyr3yl)]N[3Pal(6-NH2)]Y(Me)IIRR[4Pal][NMeY]C[PEG4]-NH2; thioether N-15) |
| 21.6 | 444 |  |  | CCC(CC)[C@@H]1NC(=O)[C@H](Cc2ccc(OCC(=O)O)cc2)NC(=O)[C@H](Cc2ccc(O)cc2)NC(=O)[C@H](CC(N)=O)NC(=O)[C@H](Cc2cnc3ccccn23)NC(=O)[C@H](C(C)C)NC(=O)[C@H](Cc2cccc(Cl)c2)N(C)C(=O)[C@H](C(C)C)NC(=O)[C@H](C)NC(=O)CSC[C@@H](C(=O)NCC(=O)N[C@@H](CCCCN=[N+]=[N-])C(N)=O)NC(=O)[C@H](Cc2ccc(O)cc2)N(C)C(=O)[C@H](Cc2cccc(C(=O)O)c2)NC(=O)[C@H](CCCNC(=N)N)NC(=O)[C@H](CCC(N)=O)NC(=O)[C@H]([C@@H](C)CC)NC1=O [compound 67] ({CH2CO}-AV[NMePhe(3-Cl)]V[Ala(imidazo(1,2-a)pyr3yl)]NYY(Carboxymethyl)[Nva(3-Et)]IQR[Phe(3-COOH)][NMeY]CG[Lys(N3)]-NH2; thioether N-15) |
|  |  | 12 | 62 | CCC(CC)[C@@H]1NC(=O)[C@H](Cc2ccc(OCC(=O)O)cc2)NC(=O)[C@H](Cc2ccc(O)cc2)NC(=O)[C@H](CC(N)=O)NC(=O)[C@H](Cc2cn(CC(=O)O)c3ccccc23)NC(=O)[C@H](C(C)C)NC(=O)[C@H](Cc2cccc(Cl)c2)N(C)C(=O)[C@H](C(C)C)NC(=O)[C@H](C)NC(=O)CSC[C@@H](C(=O)NCCOCCOCCOCCOCCC(N)=O)NC(=O)[C@H](Cc2cccc(Cl)c2)N(C)C(=O)[C@H](Cc2cccc(C(=O)O)c2)NC(=O)[C@H](CCCNC(=N)N)NC(=O)[C@H](CCC(N)=O)NC(=O)[C@H]([C@@H](C)CC)NC1=O [compound 94] ({CH2CO}-AV[NMePhe(3-Cl)]V[Trp(1-CH2COOH)]NYY(Carboxymethyl)[Nva(3-Et)]IQR[Phe(3-COOH)][NMePhe(3-Cl)]C[PEG4]-NH2; thioether N-15) |
